Measured values reported in US10793557B2, “Sting agonist compounds” (Merck Sharp & Dohme Corp., priority 2018, dated 2020).

Legend:
full-length HAQ STING = molecular target: T1, full-length HAQ STING (Homo sapiens, UniProt Q86WV6, G230A/H232R/R293Q/R71H); assay: 3H-cGAMP filtration binding assay (HAQ STING); details: competition with tritiated cGAMP, HAQ STING membrane
T1 construct: AviTag (after GG linker) (C); HRV3C cleavage site (after GS linker) (C); HIS8 (C); made in house; host or cells: Trichoplusia ni (Hi-Five) insect cells infected with baculovirus (virus generated and amplified in Sf21 cells); used as a washed membrane preparation
Excerpt: The ability of compounds to bind STING is quantified by the ability to compete with tritiated cGAMP ligand for human STING receptor membrane using a radioactive filter-binding assay. The binding assay employs STING receptor obtained from Hi-Five cell membranes overexpressing full-length HAQ STING prepared in-house and tritiated cGAMP ligand also purified in-house.
(§1) The ability of compounds to bind STING is quantified by their ability to compete with tritiated cGAMP ligand for human STING receptor membrane using a radioactive filter-binding assay. The binding assay employs STING receptor obtained from Trichoplusia ni cell membranes (T. ni; Expression Systems, cat #94-002F, www.expressionsystems.com) overexpressing full-length HAQ STING and tritiated cGAMP ligand.
The basic HAQ STING filtration assay protocol is as follows:
The compounds were serially titrated by the Hamilton STARPlus CORE in a 96-well plate (Greiner, #651201) using a 1:3 ten-point dose response format. After compound preparation, a 2.2 ug/ml working concentration of STING membrane (SEQ. ID. No. 1) was prepared by diluting concentrated membrane into assay buffer (1×PBS; Invitrogen # SH30028.02) and douncing 7× using a manual tissue homogenizer (Wheaton, #357546). 148 uL of prepared membrane was then manually added to each well of a 96-well deep-well polypropylene plate (Fisher Scientific, #12-566-121). Following membrane addition, 2 uL of either titrated test compound, DMSO control (Sigma #276855), or cold cGAMP control was added to the appropriate wells using a BIOMEK FX. Compound and membrane then preincubated for 60 min at RT to allow compound binding to equilibrate. Following equilibration, 8 nM of [^3H]c-GAMP ligand was prepared by diluting into assay buffer, and 50 uL of this working stock was then manually added to each well of the assay plate. Plates were then incubated at RT for 60 min, and the contents of each assay plate were then filtered through a 96-well GF/B filter plate (PerkinElmer, #6005250) using a TOMTEC MACH III Cell Harvester equipped with 20 mM HEPES buffer (Fisher Scientific, # BP299500). The filter plates were then dried at 55° C. for 30 min using a pressurized oven before 30 uL of ULTIMA GOLD F scintillate was added to each well. Tritium levels for each reaction well were then measured using a PerkinElmer TopCount plate reader.
(§2) After normalization to controls, the percent activity for each compound concentration was calculated by measuring the amount of remaining radioactivity. The plot of percent activity versus the log of compound concentration was fit with a 4-parameter dose response equation to calculate EC50 values.

[1] = tested on: secretion of interferon-beta from THP1 cells; assay: IFN-β secretion in THP1 cell culture (5 h); type: cell-based; details: Homo sapiens, THP-1, 5 h, 30 uM cGAMP = 100%; for activation at 30 µM: compound at 30 μM, read-out: % Effect at 30 μM relative to 2′3′-cGAMP
Protocol: The ability of compounds to stimulate the secretion of interferon-beta from THP1 cells was measured using a human IFN-β AlphaLISA kit (Perkin Elmer, Cat. No. AL265F). The basic protocol is as follows:
A Labcyte Echo 550 acoustic dispenser was used to transfer 120 nL of compound dissolved in DMSO into the wells of an empty, sterile 384-well microplate, (Corning, Cat. No. 3712). THP1 cells (American Type Culture Collection, Cat. No. TIB202) previously frozen in Recovery Medium (Life Technologies, Cat. No. 12648-010) were thawed and immediately diluted 10-fold into 37° C. assay medium (RPMI 1640+L-Glutamine & phenol red, Life Technologies, Cat. No. 11875-085; 0.5% heat inactivated fetal bovine serum, Sigma Aldrich, Cat. No. F4135; 1 mM Sodium Pyruvate, Life Technologies, Cat. No. 11360-070; 1× non-essential amino acids; Life Technologies, Cat. No. 11140-050). The cell viability and count was ascertained using a Beckman Coulter V-Cell XR cell counter. The cells suspension was centrifuged at 200×g for 5 min at RT. Cells were resuspended to a density of 0.8×10^6/mL in 37° C. assay medium. Subsequent liquid transfers were performed using either a Matrix electronic multichannel pipette or an Agilent Bravo Automated Liquid Handling Platform.
The assay was started by dispensing 40 μL of the previously prepared cell suspension into the wells of the plate containing compounds. After 5 h incubation at 37° C., 5% CO2 in a humidified atmosphere, the plate of cells and compounds was centrifuged at 200×g for 5 min at RT. From each well, 5 μL of supernatant was transferred into corresponding wells of a white 384-well plate (Perkin Elmer, Cat. No. 6005620). To these supernatant-containing wells was added 10 μL of 5× Anti-Analyte Acceptor beads (50 μg/mL of AlphaLISA HiBlock Buffer) and incubated for 30 min at RT while shaking on an orbital plate shaker. To each well was added 10 μL of 5× Biotinylated Antibody Anti-analyte (5 nM in AlphaLISA HiBlock Buffer) and incubated on an orbital plate shaker for 60 min at RT or overnight at 4° C. To each well was added 25 μL of 2× SA-Donor beads (80 μg/mL in AlphaLISA HiBlock Buffer) and incubated for 30-45 min at RT in the dark while shaking on an orbital plate shaker. The plate was then read on a Perkin Elmer Envision (λex=680 nm, […]). The percent effect of the AlphaLISA signal at each compound concentration was calculated based on 30 uM cGAMP positive controls and 0.3% DMSO negative controls. The plot of percent effect versus the log of compound concentration was fit with a 4-parameter concentration response equation to calculate EC50 values. The test compounds were tested at concentrations 30000, 10000, 3333, 1111, 370.4, 123.4, 41.2, 13.7, 4.6, and 1.5 nM with 0.3% residual DMSO. The control compound, cGAMP was tested at concentrations 100000, 33333, 11111, 3704, 1235, 412, 137, 46, and 15 nM with 0.3% residual DMSO.
Compounds of the disclosure were evaluated for IFN-β secretion in THP1 cell culture as described above. The following table tabulates the biological data for these compounds as percent activation relative to 2′3′-cGAMP at the 30 µM concentration.

full-length WT STING = molecular target: T2, full-length WT STING (Homo sapiens, UniProt Q86WV6, H232R); assay: 3H-cGAMP filtration binding assay (WT STING); details: competition with tritiated cGAMP, WT STING membrane
T2 construct: AviTag (after gg linker) (C); HRV3C cleavage site (after gs linker) (C); HIS8 (C); made in house; host or cells: Trichoplusia ni (Hi-Five) insect cells infected with baculovirus (virus generated and amplified in Sf21 cells); used as a washed membrane preparation
Protocol: as §1, with “WT” for “HAQ”
The basic WT STING filtration assay protocol is as follows:
16 nM of [^3H] c-GAMP ligand was prepared by diluting into assay buffer, and 50 uL of this working stock was manually added to each well of the assay plate. After ligand addition, 2 uL of either titrated test compound, DMSO control (Sigma #276855), or cold cGAMP control was added to the appropriate wells using a BIOMEK FX. The serially titrated compound was prepared on a Hamilton STARPlus CORE in a 96-well plate (Greiner, #651201) using a 1:3 ten-point dose response format. Following compound addition, a 2.2 ug/ml working concentration of STING membrane (SEQ. ID. No. 3) was prepared by diluting concentrated membrane into assay buffer (1×PBS; Invitrogen # SH30028.02) and douncing 7× using a manual tissue homogenizer (Wheaton, #357546). 148 uL of this prepared membrane was then manually added to each well of a 96-well deep-well polypropylene plate (Fisher Scientific, #12-566-121). Compound, ligand, and membrane then incubated for 60 min at RT before the contents of each assay plate were filtered through a 96-well GF/B filter plate (PerkinElmer, #6005250) using a TOMTEC MACH III Cell Harvester equipped with 20 mM HEPES buffer (Fisher Scientific, # BP299500). The filter plates were then dried at 55° C. for 30 min using a pressurized VWR oven before 30 uL of ULTIMA GOLD F scintillate was added to each well. Tritium levels for each reaction well were then measured using a PerkinElmer TopCount plate reader.
as §2

T2 sequence (Q86WV6 with tags, fused parts or gaps H232R): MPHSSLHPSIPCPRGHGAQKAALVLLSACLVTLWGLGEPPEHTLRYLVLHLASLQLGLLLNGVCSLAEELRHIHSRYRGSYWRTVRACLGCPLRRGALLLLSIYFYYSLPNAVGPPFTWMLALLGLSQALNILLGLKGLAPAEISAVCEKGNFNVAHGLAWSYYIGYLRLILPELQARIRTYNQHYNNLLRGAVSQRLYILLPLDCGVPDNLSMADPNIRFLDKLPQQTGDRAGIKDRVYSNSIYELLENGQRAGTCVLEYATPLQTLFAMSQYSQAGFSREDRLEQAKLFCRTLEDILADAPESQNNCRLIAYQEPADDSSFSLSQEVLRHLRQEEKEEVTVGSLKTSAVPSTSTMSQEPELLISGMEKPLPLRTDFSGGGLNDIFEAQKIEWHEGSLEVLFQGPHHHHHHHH
T1 sequence (Q86WV6 with tags, fused parts or gaps R71H/G230A/H232R/R293Q): as the sequence (Q86WV6 with tags, fused parts or gaps H232R) above, with R71H, G230A, R293Q counted along it

Compound	EC50 (full-length HAQ STING) [nM]	EC50 (full-length WT STING) [nM]	activation at 30 µM [1] [%]	activation at 3 µM ([1]; compound at 3 uM, read-out: % Effect relative to 2′3′-cGAMP (@ 3 uM)) [%]
COc1cc2sc(C(=O)C[C@H](C)C(=O)O)cc2cc1OCCCCOc1cc2sc(C(=O)C[C@H](C)C(=O)O)cc2cc1OC [Example 94, (S)-4-(5-(4-((2-((S)-3-carboxybutanoyl)-5-methoxybenzo[b]thiophen-6-yl)oxy)butoxy)-6-methoxybenzo[b]thiophen-2-yl)-2-methyl-4-oxobutanoic acid]	6	131	100	
COc1cc2sc(C(=O)C[C@H](C)C(=O)O)cc2c(F)c1OCCCOc1c(OC)cc2sc(CC[C@H](C)C(=O)O)cc2c1Cl [Example 151, (S)-4-(5-(3-((2-((S)-3-carboxybutyl)-4-chloro-6-methoxybenzo[b]thiophen-5-yl)oxy)propoxy)-4-fluoro-6-methoxybenzo[b]thiophen-2-yl)-2-methyl-4-oxobutanoic acid]	77	1040		63
COc1cc2sc(C(=O)C[C@@H](C)C(=O)O)cc2cc1CCCOc1c(OC)cc2sc(C(=O)C[C@H](C)C(=O)O)cc2c1F [Example 91, (R)-4-(5-(3-((2-((S)-3-carboxybutanoyl)-4-fluoro-6-methoxybenzo[b]thiophen-5-yl)oxy)propyl)-6-methoxybenzo[b]thiophen-2-yl)-2-methyl-4-oxobutanoic acid]	7	30	109	
COc1cc2sc(C(=O)CCC(=O)O)cc2cc1CCCOc1nc2cc(C(=O)CCC(=O)O)sc2cc1OC [Example 10, 4-(5-(3-(2-(3-carboxypropanoyl)-6-methoxybenzo [b]thiophen-5-yl)propoxy)-6-methoxythieno[3,2-b]pyridin-2-yl)-4-oxobutanoic acid]	123	421	134	
COc1cc2sc(C(=O)CCC(=O)O)cc2cc1CCCOc1cc2cc(C(=O)CCC(=O)O)sc2cc1OC [Example 44, 4-(5-(3-((2-(3-carboxypropanoyl)-6-methoxybenzo[b]thiophen-5-yl)oxy)propyl)-6-methoxybenzo[b]thiophen-2-yl)-4-oxobutanoic acid]	14	64	108	

Second part, led by results:

EC50 (full-length HAQ STING) [nM]	EC50 (full-length WT STING) [nM]	Compound	activation at 30 µM [1] [%]	activation at 3 µM ([1]; compound at 3 uM, read-out: % Effect relative to 2′3′-cGAMP (@ 3 uM)) [%]
2	23	COc1cc2sc(C(=O)CCC(=O)O)cc2nc1OCCOc1c(OC)cc2sc(C(=O)CCC(=O)O)cc2c1F [Example 81, 4-(5-(2-((2-(3-carboxypropanoyl)-4-fluoro-6-methoxybenzo[b]thiophen-5-yl)oxy)ethoxy)-6-methoxythieno[3,2-b]pyridin-2-yl)-4-oxobutanoic acid]	120	
7	24	COc1cc2sc(C(=O)C[C@H](C)C(=O)O)cc2nc1OCCOc1c(OC)cc2sc(C(=O)CCC(=O)O)cc2c1F [Example 20, (S)-4-(5-(2-((2-(3-carboxypropanoyl)-4-fluoro-6-methoxybenzo[b]thiophen-5-yl)oxy)ethoxy)-6-methoxythieno[3,2-b]pyridin-2-yl)-2-methyl-4-oxobutanoic acid]	63	
1	4	COc1cc2sc(C(=O)CCC(=O)O)cc2cc1OCCCc1c(OC)cc2sc(C(=O)C[C@H](C)C(=O)O)cc2c1F [Example 161, (S)-4-(5-(3-((2-(3-carboxypropanoyl)-6-methoxybenzo[b]thiophen-5-yl)oxy)propyl)-4-fluoro-6-methoxybenzo[b]thiophen-2-yl)-2-methyl-4-oxobutanoic acid]	106	
1	6	COc1cc2sc(C(=O)C[C@H](C)C(=O)O)cc2cc1OCC(C)COc1cc2cc(C(=O)C[C@H](C)C(=O)O)sc2cc1OC [Example 160, (2S,2′S)-4,4′-(((2-methylpropane-1,3-diyl)bis(oxy))bis(6-methoxybenzo[b]thiophene-5,2-diyl))bis(2-methyl-4-oxobutanoic acid)]	18	
